# Patent US12458614B2, “Therapeutic agents for improved mobility and cognitive function and for treating neurodegenerative diseases and lysosomal storage disorders” (priority 2017, dated 2025)
# Legend:
# Npc1−/− mice [1] = assay: Weight data; assay type: in vivo, mouse; conditions: 0.1 g/kg from weaning
# Text: (§1) Separate groups of Npc1^−/− and Npc1^+/+ mice were left untreated, as controls. Animals were weighed twice a week. Weights were averaged (mean) across all mice in each group and compared.
# wild-type (Npc1+/+) mice [2] = assay: Weight data; assay type: in vivo, mouse; conditions: 0.1 g/kg from weaning
# Text: as §1
# Npc1−/− mice [3] = assay: Gait analysis (CatWalk); assay type: in vivo, mouse; conditions: eight weeks of age
# Description: (§2) Separate groups of Npc1^−/− and Npc1^+/+ mice were left untreated, as controls. Gait analysis was performed on mice at eight weeks of age using a CatWalk® 15.0 system according to manufacturer's instructions (Noldus, Nottingham, UK). Five runs were recorded per animal. CatWalk® parameters measured were: • 1. Stand Mean: average duration (s) of paws in contact with glass plate; • 2. Step Cycle: duration (s) between two consecutive contacts of the same paw; • 3. Duty Cycle: percentage of time paws in contact with plate compared with time to complete a step cycle; • 4. Step Sequence (AB): percentage of time spent walking in LF-RH-RF-LH alternating pattern (LF: left front; RH: right hind; RF: right front; LH left hind); • 5. Cadence: step per seconds in a trial; • 6. Diagonal Support: percentage of time with simultaneous contact of diagonal paws with the glass plate (RF&LH or RH&LF). Motor Function Analysis
# wild-type (Npc1+/+) mice [4] = assay: Gait analysis (CatWalk); assay type: in vivo, mouse; conditions: eight weeks of age
# Description: as §2
# [5] = test system: Niemann-Pick A (NPA) patient fibroblasts; assay: Lysosomal volume via LysoTracker; assay type: cell-based, human; conditions: 1 mM, 6 days
# [6] = test system: Mucolipidosis Type II (MLII) patient fibroblasts; assay: Lysosomal volume via LysoTracker; assay type: cell-based, human; conditions: 1 mM, 6 days
# [7] = test system: Aspartylglucosaminuria patient fibroblasts; assay: Lysosomal volume via LysoTracker; assay type: cell-based, human; conditions: 1 mM, 6 days
# [8] = test system: Sandhoff disease model, Hexb−/− mouse; assay: Step cycle time; assay type: in vivo; conditions: Sandhoff mice, 12 weeks of age
# Description: This study made use of a mouse model of Sandhoff disease, the Hexb^−/− mouse, as descrbed in Jeyakumar et al. (Jeyakumar, M. et al. (1999) Proc. Natl. Acad. Sci. USA 96: 6388-6393). Step cycle is the length of time taken during locomotion by a limb from the time it leaves the ground until it leaves the ground on the next occasion. Step cycle time was assessed at 12 weeks of age in untreated and acetyl-leucine treated Sandhoff model mice. Acetyl-leucine treatment constituted 0.1 g/kg body weight acetyl-leucine from 3 weeks of age.
# [9] = test system: Sandhoff disease patient fibroblasts; assay: Glycosphingolipid (GSL) levels via HPLC; assay type: cell-based, human; conditions: 1 mM for 6 days
# [10] = test system: patients with amyotrophic lateral sclerosis (ALS); assay: Case studies, amyotrophic lateral sclerosis; assay type: in vivo, human
# Text: The results were documented by video.
# [11] = test system: patient with spinocerebellar ataxia 28 (SCA 28); assay: Case study, spinocerebellar ataxia 28; assay type: in vivo, human; conditions: SCA 28 patient, about one month, 5 g per day
# Description: A gait analysis was performed before treatment commenced. After about one month of treatment, medication was stopped and the patient was evaluated. […] The patient reported that they no longer walked like a robot and could climb the stairs without using the banisters.
# [12] = test system: patients with ataxia with oculomotor apraxia type 4; assay: Case study, ataxia with oculomotor apraxia type 4; assay type: in vivo, human; conditions: AOA4 youngest sibling
# Text: In this case study, four patients (male siblings) suffered from, and were later diagnosed with, ataxia with oculomotor apraxia type 4. The older three siblings […], at the time of disease onset. […] The older siblings began treatment with acetyl-leucine […], respectively, and have been on the treatment for approximately four years. No long-term clinical data is available for these three patients.
# The youngest sibling was […] at the time of onset. […] No long-term clinical data is available for the youngest sibling.
# [13] = test system: microtubule-associated protein 1A/1B-light chain 3-phosphatidylethanolamine conjugate (LC3-II); assay: LC3-II levels relative to tubulin loading control; assay type: in vivo, mouse; conditions: NPC1−/− mice, 0.1 g/kg body weight daily from 3 weeks, sacrificed at 8 weeks
# Description: The Niemann-Pick Disease Type C (NPC) mouse model shares a number of pathological features with Alzheimer's disease (AD) as described herein. […] Mice were sacrificed at 8 weeks of age. Levels of amyloid precursor protein C-terminal fragments (APP-CTFs) were evaluated relative to total amyloid precursor protein (APP) levels in the cerebellum for wild type, untreated wild type NPC1^−/− mice, and AL-treated wild type NPC1^−/− mice. Levels of microtubule-associated protein 1A/1B-light chain 3-phosphatidylethanolamine conjugate (LC3-II) were also evaluated relative to levels of tubulin loading control for wild type, untreated wild type NPC1^−/− mice, and AL-treated wild type NPC1^−/− mice.
# [14] = test system: subjects with no apparent dysfunction in cognitive ability or movement/balance; assay: Balancing ability (eyes closed, non-dominant foot lifted); assay type: in vivo, human
# Description: Due to reported improvement in balance on treatment we measured balancing ability at the end of the treatment period and at the end of the washout period. This assessment required the subject to close their eyes and lift their non-dominant foot around 6 inches off the ground. The subject was then timed to see how long they could remain upright and without significant wobbles. This was repeated three times, and the values averaged. […] This assessment required the subject to close their eyes and lift their non-dominant foot around 6 inches off the ground. The subject was then timed to see how long they could remain upright and without significant wobbles. This was repeated three times, and the values averaged. We measured balancing ability at the end of the treatment period and at the end of the washout period. This assessment required the subject to close their eyes and lift their non-dominant foot around 6 inches off the ground. The subject was then timed to see how long they could remain upright and without significant wobbles. This was repeated three times, and the values averaged.
# [15] = test system: patients with progressive supranuclear palsy; assay: Case studies, progressive supranuclear palsy; assay type: in vivo, human
# [16] = ALS Patient 1, after a further 20 days
# [17] = ALS Patient 2, after approximately 2 months
structure (smiles),measurement,setting,value
CC(=O)NC(CC(C)C)C(=O)O (racemic) [acetyl-DL-leucine],Delay of weight loss symptoms compared to the untreated group,Npc1−/− mice [1],two
same,Effect on weight gain,wild-type (Npc1+/+) mice [2],no significant effect
same,Gait properties vs untreated littermates,Npc1−/− mice [3],significantly improved gait
same,Gait properties vs untreated littermates,wild-type (Npc1+/+) mice [4],no significant difference in gait properties
same,LysoTracker fluorescence vs untreated disease fibroblasts,[5],statistically significant reduction in LysoTracker fluorescence toward control level
same,LysoTracker fluorescence vs untreated disease fibroblasts,[6],statistically significant reduction in LysoTracker fluorescence toward control level
same,LysoTracker fluorescence vs untreated disease fibroblasts,[7],trend in reducing LysoTracker fluorescence toward control level
same,Average step cycle time,[8]; p<0.001 vs untreated,significantly faster average step cycle times
same,Hind step cycle time,[8]; p<0.01 vs untreated,significantly faster hind step cycle times
same,Front step cycle time,[8]; p<0.05 vs untreated,significantly faster front step cycle times
same,GSL levels,[9],trend towards decreased GSL levels
same,Overall symptoms,[10]; ALS Patient 1,improvement in symptoms
same,Speech after stopping treatment,"[10]; ALS Patient 1, about 7 days plus 1-2 additional weeks off treatment",deterioration of speech
same,Speech (patient report),"[10]; ALS Patient 1, after 15 days, 3 then 5 gram per day",significant improvement of speech
same,Paresis of right foot-dorsiflexors / foot drop,[10]; [16],foot drop had improved dramatically
same,Sleep (patient report),[10]; [16],improvement in sleep
same,Speech (patient report),[10]; [16],further improvement of speech
same,Symptomatology after resuming treatment,"[10]; ALS Patient 1, second resumption","improved symptomatology, in particular speech"
same,Motor function of the left hand,[10]; [17],progredient deterioration of the motor function of the left hand
same,Swallowing functions,[10]; [17],remained stable
same,Walking (patient report),[10]; [17],discrete improvement of walking
same,Symptomatology (patient report),"[10]; ALS Patient 3, after one month",did not report improvement of symptomatology
same,Symptomatology after suspension,"[10]; ALS Patient 4, 10 days after therapy was suspended",worsening of symptomatology
same,Symptomatology (patient report),"[10]; ALS Patient 4, after about one month",subjective improvement of dysphagia and less hypersalivation
same,Symptomatology (patient report),[11],"improvement of the symptomatology, in particular reduced dizziness"
same,Fine motor skills and speech (reported by mother),[12],improved fine motor skills and improved speech at each age compared to their older siblings
same,LC3-II levels relative to tubulin,[13],lowering of LC3-II
same,Time subject remained balanced,"[14]; person one, end of the washout period",8 s
same,Time subject remained balanced,"[14]; person one, last day of the treatment period",12 s
same,Time subject remained balanced,"[14]; person three, end of the washout period",4.01 s
same,Time subject remained balanced,"[14]; person three, last day of the treatment period",7.27 s
same,Time subject remained balanced,"[14]; person two, end of the washout period",3.1 s
same,Time subject remained balanced,"[14]; person two, last day of the treatment period",7.9 s
same,Symptoms after stopping medication,"[15]; PSP Patient 2, about two months later",no deterioration of symptoms after stopping medication
same,Symptoms after stopping medication,"[15]; PSP Patient 3, about two months later",no deterioration of symptoms after stopping medication
